Results taken from patent US20180078615A1, “USE OF CCL2 TO INHIBIT ABNORMAL UTERINE BLEEDING” (UNIVERSITY OF SOUTH FLORIDA, priority 2015, published 2018).
Entries after “also recorded” stand apart in the source; their conditions may differ.

Tests used:
[1] = tested on: VSMCs; test: qRT-PCR of H19, TMEM119, RARRES1 and CCL2 mRNA in cultured VSMCs; format: cell-based, human; conditions: vs control
Description: (§1) VSMCs were thawed and cultured in medium 231 (M231; Life Technologies) with smooth muscle growth supplement (5% FBS; 2 ng/mL human basic fibroblast growth factor, 0.5 ng/mL human epidermal growth factor, 5 ng/mL heparin, 0.2 μg/mL insulin and 5 μg/mL BSA; Life Technologies) with 100 U/mL penicillin, 100 μg/mL streptomycin, 0.25 μg/mL fungizone. Confluent VSMCs were washed twice with 1×PBS to remove residual serum, passaged in 96-well or 6-well plates and incubated in parallel in M231 with 1% charcoal striped FBS with 0.1% ethanol (vehicle, control) or 10^−7 M MPA (Sigma-Aldrich) or 10^−7 M ETO (Organon) or 10^−7 M P4 (Sigma-Aldrich) for 15 min, 6, 48, and 72 h. VSMCs were then washed with ice-cold PBS and stored at −80° C. for further RNA and protein analyses.
For qRT-PCR, 500 ng total RNA from each treatment was reverse transcribed by using RETROscript kit (Ambion). qRT-PCR was performed using the TaqMan Gene Expression Assay Kits for H19, TMEM119, RARRES1, and CCL2 (TaqMan ID # Hs00262142_g1, Hs01938722_m1, Hs00161204_m1 and Hs00234140_m1, respectively; Life Technologies) as described previously (36). Expression of the target mRNAs was normalized to β-actin levels, and the 2^−ΔΔCT was used to calculate relative expression levels.

[2] = tested on: STAT1; test: Western blot of total and phosphorylated STAT1 in VSMCs; format: cell-based, human; conditions: VSMCs treated for 15 min, vs control
Description: as §1
To confirm inhibition of STAT1 signaling in LAPC-treated VSMCs, detected by IPA, cell lysates from VSMCs were run in 10% Tris-HCl gel (Bio-Rad). Transfer onto membrane, blocking, washing, chemiluminescence development, and stripping/reprobing were performed as described previously (35). The membrane was incubated with antitotal STAT1 or antiphospho-STAT1 rabbit monoclonal antibodies (Cell Signaling) and then with peroxidase-conjugated goat anti-rabbit IgG (Vector Labs). Signals were developed by a chemiluminescence kit (GE Healthcare).

[3] = tested on: endometrial VSMCs; test: αSMA and PCNA double-immunostaining of endometrium of oophorectomized guinea pigs (OVX-GPs); format: in vivo, guinea pig; conditions: 21-d time-release pellets, mean±SEM
Excerpt: After receiving written informed consent at New York University under Institutional Review Board approval, paraffin sections were derived from banked paired endometrial tissues obtained before and after Depo therapy by […] biopsy from each reproductive age woman with regular menstrual cycles during the secretory phase (n=6). Based on an established animal model for LAPC-induced AUB in humans (9), nulliparous adult female pigmented GPs (weighing 525-775 g) were used in experimental procedures conforming to National Health and Medical Research Council Guidelines of Australia and approved by the Animal Ethics Committee of The University of Western Australia. GPs (n=24) were subjected to bilateral OVX and given subcutaneous 21-d time-release pellets (Innovative Research of America) containing MPA (50 mg/d; n=6) or 17β-Estradiol (E2) (0.1 mg/d; n=6), both MPA and E2 (n=6), or no pellets (n=6). On day 20 of exposure to the pellets, GPs were killed with pentobarbital and uterine tissues fixed in 10% formalin and processed for paraffin embedding. In vitro experiments used aortic VSMCs from premenopausal women (n=2) (Life Technologies). Paraffin sections (5 μm) from paired pre- vs. post-Depo treated human or GP endometria were deparaffinized, boiled in citrate buffer (pH: 6.0) and then incubated in methanol containing 3% H2O2. Following 10% normal horse serum blocking (Vector Labs), slides were incubated overnight at 4° C. with mouse anti-PCNA monoclonal antibody (EMD Millipore). After several rinses in Tris-buffered saline containing 0.1% tween-20 (TBS-T; pH 7.6) slides were then incubated with biotinylated anti-mouse IgG (Vector Labs) for 30 min, then with a streptavidin-peroxidase complex (Elite ABC kit; Vector Labs) for 30 min and with diaminobenzidine (DAB; Vector Labs) for 3 min. […] Slides were counterstained by Hematoxylin and evaluated by histological scoring (HSCORE), as described previously (34). (See details for HSCORE evaluation for αSMA immunoreactivity and PCNA quantitation in SI Materials and Methods). Staining intensity for α-SMA was semiquantitatively evaluated by Q:1 HSCORE (1). […] An HSCORE value was determined for each specimen by using the formula HSCORE=ΣPi (i+1), where Pi is the percentage of stained cells in each intensity category (i.e., i=1, 2, or 3). Quantitation of PCNA immunostaining was determined by counting the number of PCNA^+ (brown) and PCNA^- cell nuclei (blue) in VSMCs (αSMA immunostained cells) and obtaining the ratio of numbers of PCNA^+ cell nuclei to total αSMA^+ cells. For each slide, three different fields were evaluated microscopically at 200× magnification. Slides were evaluated at different times by two investigators blinded to tissue source, and the average HSCORE or percentage of cells with PCNA^+ nuclei to total αSMA^+ cells used.

SMILES: C#C[C@]1(O)CC[C@H]2[C@@H]3CCC4=CC(=O)CC[C@@H]4[C@H]3C(=C)C[C@@]21CC [ETO, etonogestrel]
- CCL2 mRNA levels [1]: down-regulated; also recorded: significant inhibition
- H19 mRNA [1]: up-regulated
- RARRES1 mRNA [1]: down-regulated
- TMEM119 mRNA [1]: up-regulated
- phosphorylated levels of STAT1 [2]: partially reduced
- total STAT1 levels [2]: not

SMILES: CC(=O)O[C@]1(C(C)=O)CC[C@H]2[C@@H]3C[C@H](C)C4=CC(=O)CC[C@]4(C)[C@H]3CC[C@@]21C [MPA, medroxyprogesterone acetate]
- CCL2 mRNA levels [1]: significant inhibition
- H19 mRNA [1]: up-regulated
- RARRES1 mRNA [1]: down-regulated
- TMEM119 mRNA [1]: up-regulated
- CCL2 mRNA levels ([1]; listed as WA): down-regulated
- phosphorylated levels of STAT1 [2]: partially reduced
- total STAT1 levels [2]: not
- PCNA+ endometrial VSMCs ([3]; n=6, control 11.2%±2.3): 10.2%±2.8
- αSMA HSCORE ([3]; n=6, control 135.2±26.0): 83.50±9.0
